ChEMBL document CHEMBL6177960, “Rational design, optimization, and biological evaluation of novel pyrrolo-pyridone derivatives as potent and orally active Cbl-b inhibitors” (Eur J Med Chem, 2025)

How the values were obtained:
[1] = Apparent permeability across basolateral to apical side in human Caco-2 cells at 2 uM incubated for 2 hrs by LC-MS/MS analysis
[2] = in vitro; settings: rhesus monkey, hepatocytes
[3] = in vitro; settings: human, hepatocytes
[4] = in vivo; settings: male, CD-1(ICR), mouse, po, 10 mg/kg
[5] = in vitro; settings: rat, hepatocytes
[6] = in vivo; settings: male, CD-1(ICR), mouse, iv, 1 mg/kg
Description: Half-life in male CD-1(ICR) mouse at 1 mg/kg, iv measured after 1440 mins by LC-MS/MS analysis

[7] = Toxicity in female BALB/C mouse model implanted with mouse CT26 cells assessed as effect on body weight at 30 mg/kg, po administered via gavage once daily and measured after 14 days; settings: in vivo, 336 h
[8] = in vivo; settings: male, CD-1(ICR), mouse, iv, 1 mg/kg; remark: listed apart in the source
Description: AUCinfinity in male CD-1(ICR) mouse at 1 mg/kg, iv measured after 1440 mins by LC-MS/MS analysis

[9] = Metabolic stability in monkey hepatocytes assessed as hepatic extraction ratio at 2 uM measured up to 120 mins by LC-MS/MS analysis; settings: rhesus monkey
[10] = Protein binding in cynomolgus monkey plasma assessed as unbound fraction at 5 uM incubated for 5 hrs by equilibrium dialysis based LC-MS analysis
[11] = in vivo; settings: male, CD-1(ICR), mouse, po, 10 mg/kg; remark: listed apart in the source
Description: MRTinfinity in male CD-1(ICR) mouse at 10 mg/kg, po measured after 1440 mins by LC-MS/MS analysis

[12] = in vivo; settings: male, CD-1(ICR), mouse, po, 10 mg/kg; remark: listed apart in the source
[13] = in vivo; settings: male, CD-1(ICR), mouse, iv, 1 mg/kg; remark: listed apart in the source
Description: AUClast in male CD-1(ICR) mouse at 1 mg/kg, iv measured after 1440 mins by LC-MS/MS analysis

[14] = Metabolic stability in mouse hepatocytes assessed as hepatic extraction ratio at 2 uM measured up to 120 mins by LC-MS/MS analysis
[15] = Inhibition of immunosuppressive activity in PGE2-induced human T cells assessed as increase in cell proliferation preincubated with PGE2 for 15 mins followed by compound administration for 60 mins and measured after 72 hrs of anti-human CD28 antibody by flow cytometric analysis
[16] = in vivo; settings: male, CD-1(ICR), mouse, iv, 1 mg/kg; remark: listed apart in the source
Description: Apparent volume of distribution in male CD-1(ICR) mouse at 1 mg/kg, iv measured after 1440 mins by LC-MS/MS analysis

[17] = in vivo; settings: male, CD-1(ICR), mouse, po, 10 mg/kg; remark: listed apart in the source
Description: AUCinfinity in male CD-1(ICR) mouse at 10 mg/kg, po measured after 1440 mins by LC-MS/MS analysis

[18] = Protein binding in Beagle dog plasma assessed as unbound fraction at 5 uM incubated for 5 hrs by equilibrium dialysis based LC-MS analysis
[19] = Apparent permeability across apical to basolateral side in human Caco-2 cells at 2 uM incubated for 2 hrs by LC-MS/MS analysis
[20] = in vivo; settings: male, CD-1(ICR), mouse, iv, 1 mg/kg; remark: listed apart in the source
Description: Clearance in male CD-1(ICR) mouse at 1 mg/kg, iv measured after 1440 mins by LC-MS/MS analysis

[21] = Plasma protein binding in human at 5 uM incubated for 5 hrs by equilibrium dialysis based LC-MS analysis
[22] = mouse, in vivo, po, 10 mg/kg, 24 h
[23] = Apparent permeability across basolateral to apical side in human Caco-2 cells assessed as drug recovery at 2 uM incubated for 2 hrs by LC-MS/MS analysis
[24] = in vivo; settings: male, CD-1(ICR), mouse, iv, 1 mg/kg; remark: listed apart in the source
Description: MRTinfinity in male CD-1(ICR) mouse at 1 mg/kg, iv measured after 1440 mins by LC-MS/MS analysis

[25] = Protein binding in CD-1 mouse plasma assessed as unbound fraction at 5 uM incubated for 5 hrs by equilibrium dialysis based LC-MS analysis
[26] = Plasma protein binding in Beagle dog at 5 uM incubated for 5 hrs by equilibrium dialysis based LC-MS analysis
[27] = Inhibition of immunosuppressive activity in PGE2-induced human T cells assessed as increase in IFNgamma production preincubated with PGE2 for 15 mins followed by compound administration for 60 mins and measured after 48 hrs of anti-human CD28 antibody by ELISA; settings: T-cell
[28] = Metabolic stability in human hepatocytes assessed as hepatic extraction ratio at 2 uM measured up to 120 mins by LC-MS/MS analysis
[29] = in vivo; settings: male, CD-1(ICR), mouse, po, 10 mg/kg; remark: listed apart in the source
[30] = in vitro; settings: dog, hepatocytes
[31] = in vitro; settings: dog, hepatocytes; remark: listed apart in the source
[32] = mouse, in vivo, iv, 1 mg/kg, 24 h
[33] = Plasma protein binding in CD-1 mouse at 5 uM incubated for 5 hrs by equilibrium dialysis based LC-MS analysis
[34] = in vivo; settings: male, CD-1(ICR), mouse, po, 10 mg/kg; remark: listed apart in the source
Description: Half-life in male CD-1(ICR) mouse at 10 mg/kg, po measured after 1440 mins by LC-MS/MS analysis

[35] = human, hepatocytes, 2 h, 2 µM
[36] = rat, hepatocytes, 2 h, 2 µM
[37] = Plasma protein binding in Sprague-Dawley rat at 5 uM incubated for 5 hrs by equilibrium dialysis based LC-MS analysis
[38] = Plasma protein binding in cynomolgus monkey at 5 uM incubated for 5 hrs by equilibrium dialysis based LC-MS analysis
[39] = in vitro; settings: mouse, hepatocytes
[40] = in vivo; settings: male, CD-1(ICR), mouse, iv, 1 mg/kg; remark: listed apart in the source
Description: C0 in male CD-1(ICR) mouse at 1 mg/kg, iv measured after 1440 mins by LC-MS/MS analysis

[41] = Apparent permeability across apical to basolateral side in human Caco-2 cells assessed as drug recovery at 2 uM incubated for 2 hrs by LC-MS/MS analysis
[42] = rhesus monkey, hepatocytes, 2 h, 2 µM
[43] = Metabolic stability in rat hepatocytes assessed as hepatic extraction ratio at 2 uM measured up to 120 mins by LC-MS/MS analysis
[44] = Protein binding in human plasma assessed as unbound fraction at 5 uM incubated for 5 hrs by equilibrium dialysis based LC-MS analysis
[45] = in vivo; settings: male, CD-1(ICR), mouse, iv, 1 mg/kg; remark: listed apart in the source
Description: Volume of distribution at steady state in male CD-1(ICR) mouse at 1 mg/kg, iv measured after 1440 mins by LC-MS/MS analysis

[46] = mouse, hepatocytes, 2 h, 2 µM
[47] = Metabolic stability in dog hepatocytes assessed as hepatic extraction ratio at 2 uM measured up to 120 mins by LC-MS/MS analysis
[48] = Protein binding in Sprague-Dawley rat plasma assessed as unbound fraction at 5 uM incubated for 5 hrs by equilibrium dialysis based LC-MS analysis
[49] = molecular target: E3 ubiquitin-protein ligase CBL-B (Homo sapiens, UniProt Q13191); assay: Binding affinity to Cbl-b (unknown origin) assessed as inhibition constant incubated for 60 mins by TR-FRET assay
[50] = Inhibition of immunosuppressive activity in PGE2-induced human T cells assessed as increase in IL2 production preincubated with PGE2 for 15 mins followed by compound administration for 60 mins and measured after 48 hrs of anti-human CD28 antibody by ELISA; settings: T-cell
[51] = in vivo; settings: male, CD-1(ICR), mouse, po, 10 mg/kg; remark: listed apart in the source
Description: AUClast in male CD-1(ICR) mouse at 10 mg/kg, po measured after 1440 mins by LC-MS/MS analysis

[52] = in vitro; settings: human, Caco-2
[53] = test system: CT26; assay: Antitumor activity against mouse CT26 cells implanted in female BALB/C mouse model assessed as tumor growth inhibition at 50 mg/kg, po administered via gavage once daily and measured after 14 days relative to control; settings: 336 h, read-out: TGI
[54] = test system: CT26; assay: Antitumor activity against mouse CT26 cells implanted in female BALB/C mouse model assessed as tumor growth inhibition at 30 mg/kg, po administered via gavage once daily and measured after 14 days relative to control; settings: 336 h, read-out: TGI
[55] = test system: CT26; assay: Antitumor activity against mouse CT26 cells implanted in female BALB/C mouse model assessed as tumor growth inhibition at 10 mg/kg, po administered via gavage once daily and measured after 14 days relative to control; settings: 336 h, read-out: TGI
[56] = Toxicity in female BALB/C mouse model implanted with mouse CT26 cells assessed as body weight gain at 10 mg/kg, po administered via gavage once daily and measured after 14 days; assay type: organism-based; settings: in vivo, 336 h, time 14 day
[57] = test system: 4T1; assay: Antitumor activity against mouse 4T1 cells implanted in female BALB/C mouse model assessed as tumor growth inhibition at 30 mg/kg, po relative to control; settings: 4T1, po, read-out: TGI

E3 ubiquitin-protein ligase CBL-B, sequence (Q13191 whole entry): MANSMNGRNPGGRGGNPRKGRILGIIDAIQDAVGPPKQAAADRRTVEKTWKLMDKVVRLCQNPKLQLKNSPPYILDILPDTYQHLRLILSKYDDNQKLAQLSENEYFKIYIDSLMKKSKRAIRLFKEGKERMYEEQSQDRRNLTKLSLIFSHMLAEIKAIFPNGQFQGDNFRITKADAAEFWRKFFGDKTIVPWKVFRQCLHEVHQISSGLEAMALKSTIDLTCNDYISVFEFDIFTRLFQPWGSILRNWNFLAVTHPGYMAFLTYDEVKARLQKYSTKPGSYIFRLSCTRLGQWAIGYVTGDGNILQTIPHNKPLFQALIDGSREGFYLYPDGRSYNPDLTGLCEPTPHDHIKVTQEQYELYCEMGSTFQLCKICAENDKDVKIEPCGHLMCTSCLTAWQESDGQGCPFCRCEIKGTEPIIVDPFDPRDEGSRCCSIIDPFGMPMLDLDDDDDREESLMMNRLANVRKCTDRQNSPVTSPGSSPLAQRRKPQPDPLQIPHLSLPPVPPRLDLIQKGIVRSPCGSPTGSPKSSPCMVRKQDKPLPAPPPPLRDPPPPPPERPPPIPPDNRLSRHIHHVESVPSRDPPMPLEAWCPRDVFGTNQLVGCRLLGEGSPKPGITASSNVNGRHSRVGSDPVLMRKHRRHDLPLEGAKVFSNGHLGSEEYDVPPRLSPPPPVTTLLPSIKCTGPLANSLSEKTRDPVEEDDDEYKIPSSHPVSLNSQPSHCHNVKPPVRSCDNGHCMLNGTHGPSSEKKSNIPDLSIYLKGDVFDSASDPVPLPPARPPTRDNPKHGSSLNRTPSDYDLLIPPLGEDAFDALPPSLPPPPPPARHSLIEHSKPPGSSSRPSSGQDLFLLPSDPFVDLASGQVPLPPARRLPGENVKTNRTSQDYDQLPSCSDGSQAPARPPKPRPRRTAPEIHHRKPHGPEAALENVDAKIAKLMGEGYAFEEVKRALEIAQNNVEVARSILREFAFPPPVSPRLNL

C[C@H]1CCCN(Cc2cc3c(c(C(F)(F)F)c2)CN(c2cccc([C@]4(c5nncn5C)C[C@@H](C)C4)c2)C3=O)C1
Papp B→A at 2 h, 2 µM [1]: 35.8 ×10⁻⁶ cm/s | half-life at 2 h, 2 µM [2]: 9.3 min | half-life at 2 h, 2 µM [3]: 46 min | Tmax at 24 h [4]: 19.8 min | half-life at 2 h, 2 µM [5]: 39.3 min | half-life at 24 h [6]: 18.6 min | Activity [7]: Non-toxic | AUC(0-inf) at 24 h [8]: 281 ng·h/mL | hepatic extraction ratio at 2 h, 2 µM [9]: 0.9 | fraction unbound at 5 h, 5 µM [10]: 0.044 | MRT inf at 24 h [11]: 103 min | Cmax at 24 h [12]: 629 ng/mL | AUC(0-t) at 24 h [13]: 277 ng·h/mL | hepatic extraction ratio at 2 h, 2 µM [14]: 0.9 | EC50 [15]: 26.8 nM | Vd at 24 h [16]: 1.62 L/kg | AUC(0-inf) at 24 h [17]: 690 ng·h/mL | fraction unbound at 5 h, 5 µM [18]: 0.078 | Papp A→B at 2 h, 2 µM [19]: 1.98 ×10⁻⁶ cm/s | clearance at 24 h [20]: 59.7 mL/min/kg | fraction unbound at 5 h, 5 µM [21]: 0.0522 | %AUCextra [22]: 4.76% | recovery at 2 h, 2 µM [23]: 81.3% | MRT inf at 24 h [24]: 26.4 min | fraction unbound at 5 h, 5 µM [25]: 0.0434 | fraction unbound at 5 h, 5 µM [26]: 0.078 | EC50 [27]: 892 nM | hepatic extraction ratio at 2 h, 2 µM [28]: 0.7 | bioavailability at 24 h [29]: 24.6% | CLint scaled at 2 h, 2 µM [30]: 50.8 mL/min/kg | half-life at 2 h, 2 µM [31]: 5.2 min | %AUCextra [32]: 1.18% | fraction unbound at 5 h, 5 µM [33]: 0.0434 | half-life at 24 h [34]: 161 min | CLH [35]: 14.3 mL/min/kg | CLH [36]: 25.2 mL/min/kg | fraction unbound at 5 h, 5 µM [37]: 0.0736 | fraction unbound at 5 h, 5 µM [38]: 0.044 | half-life at 2 h, 2 µM [39]: 10.4 min | C0 at 24 h [40]: 572 ng/mL | recovery at 2 h, 2 µM [41]: 101% | CLH [42]: 37.5 mL/min/kg | hepatic extraction ratio at 2 h, 2 µM [43]: 0.8 | fraction unbound at 5 h, 5 µM [44]: 0.0522 | Vd at 24 h [45]: 1.55 L/kg | CLH [46]: 79.8 mL/min/kg | hepatic extraction ratio at 2 h, 2 µM [47]: 0.9 | fraction unbound at 5 h, 5 µM [48]: 0.0736 | Ki [49]: 1.84 nM | EC50 [50]: 894 nM | AUC(0-t) at 24 h [51]: 661 ng·h/mL | efflux ratio at 2 h, 2 µM [52]: 18

C[C@H]1CCCN(Cc2cc3c(C4CC4)cn(-c4cccc([C@]5(c6nncn6C)C[C@@H](C)C5)c4)c(=O)c3[nH]2)C1
Tmax at 24 h [4]: 120 min | half-life at 24 h [6]: 40.8 min | AUC(0-inf) at 24 h [8]: 205 ng·h/mL | MRT inf at 24 h [11]: 253 min | Cmax at 24 h [12]: 77.9 ng/mL | AUC(0-t) at 24 h [13]: 202 ng·h/mL | Vd at 24 h [16]: 4.82 L/kg | AUC(0-inf) at 24 h [17]: 293 ng·h/mL | clearance at 24 h [20]: 82.1 mL/min/kg | %AUCextra [22]: 14.2% | MRT inf at 24 h [24]: 39.6 min | inhibition in vivo at 50 mg/kg [53]: 51% | bioavailability at 24 h [29]: 27.2% | %AUCextra [32]: 1.18% | half-life at 24 h [34]: 140 min | C0 at 24 h [40]: 395 ng/mL | Vd at 24 h [45]: 3.19 L/kg | AUC(0-t) at 24 h [51]: 243 ng·h/mL

C[C@H]1CCCN(Cc2cc3c(C(F)(F)F)cn(-c4cccc([C@]5(c6nncn6C)C[C@@H](C)C5)c4)c(=O)c3[nH]2)C1
half-life at 2 h, 2 µM [2]: 12.2 min | half-life at 2 h, 2 µM [3]: 81.8 min | Tmax at 24 h [4]: 21.6 min | half-life at 2 h, 2 µM [5]: 40.7 min | half-life at 24 h [6]: 55.7 min | Activity [7]: Non-toxic | AUC(0-inf) at 24 h [8]: 292 ng·h/mL | inhibition in vivo at 30 mg/kg [54]: 56.1% | fraction unbound at 5 h, 5 µM [10]: 0.0179 | MRT inf at 24 h [11]: 89.4 min | Cmax at 24 h [12]: 480 ng/mL | AUC(0-t) at 24 h [13]: 289 ng·h/mL | EC50 [15]: 1.4 nM | Vd at 24 h [16]: 4.66 L/kg | AUC(0-inf) at 24 h [17]: 796 ng·h/mL | fraction unbound at 5 h, 5 µM [18]: 0.0394 | clearance at 24 h [20]: 57.8 mL/min/kg | fraction unbound at 5 h, 5 µM [21]: 0.0379 | %AUCextra [22]: 0.94% | MRT inf at 24 h [24]: 60.6 min | fraction unbound at 5 h, 5 µM [25]: 0.0217 | fraction unbound at 5 h, 5 µM [26]: 0.0394 | inhibition in vivo at 10 mg/kg [55]: 12.5% | EC50 [27]: 170 nM | bioavailability at 24 h [29]: 27.2% | CLint scaled at 2 h, 2 µM [30]: 39.4 mL/min/kg | half-life at 2 h, 2 µM [31]: 24.1 min | %AUCextra [32]: 1.2% | fraction unbound at 5 h, 5 µM [33]: 0.0217 | half-life at 24 h [34]: 69 min | fraction unbound at 5 h, 5 µM [37]: 0.0419 | fraction unbound at 5 h, 5 µM [38]: 0.0179 | half-life at 2 h, 2 µM [39]: 14.3 min | C0 at 24 h [40]: 406 ng/mL | Activity [56]: Toxic | fraction unbound at 5 h, 5 µM [44]: 0.0379 | Vd at 24 h [45]: 2.91 L/kg | inhibition in vivo at 30 mg/kg [57]: 31.3% | fraction unbound at 5 h, 5 µM [48]: 0.0419 | EC50 [50]: 65.7 nM | AUC(0-t) at 24 h [51]: 789 ng·h/mL
